US20160264616A1, “THERAPEUTIC COMPOUNDS AND METHODS” (priority 2015, published 2016)

Target: T1, Gαo (Homo sapiens, UniProt P09471)
T1 construct: 6xHis; made in house; host or cells: BL21 (DE3) E. coli (printed 'B1-21 (DE3)')
Test: Differential scanning fluorimetry (DSF) with Gαo
Format: binding
Details: 50 μM compound
Method: Further evaluation of the compounds designated UI-5, UI-1590, UI-1907 and UI-1956 was conducted using Differential Scanning Fluorimetry (DSF). This method allows for the rapid measurement of protein stability based on the melting temperature (Tm) of the target protein that is bound by ligand. A shift of Tm indicates a change in protein stability to melting due to stabilization added by the small molecule binding to the target protein. The four compounds were incubated at 50 μM with RGS17 or Gαo in the presence of Sypro Orange. In aqueous solution the fluorescence emission from the dye is very weak. […] The hydrophobic parts of a native, fully folded, protein in solution are generally buried within the protein and therefore not accessible to the dye resulting in little fluorescence emission. When the protein unfolds the dye molecules can bind to the exposed hydrophobic regions of the proteins, resulting in increased fluorescence. […]
Differential scanning fluorimetry experiments were carried out using white 384-well μltraAMP PCR plates (Sorenson BioSciences; Salt Lake City, Utah). […] All data was collected using the Roche LightCycler data acquisition ability and analyzed with Graphpad Prism 6.0, using first and second derivatives of the fluorescent melting curves.

T1 sequence (P09471 whole entry): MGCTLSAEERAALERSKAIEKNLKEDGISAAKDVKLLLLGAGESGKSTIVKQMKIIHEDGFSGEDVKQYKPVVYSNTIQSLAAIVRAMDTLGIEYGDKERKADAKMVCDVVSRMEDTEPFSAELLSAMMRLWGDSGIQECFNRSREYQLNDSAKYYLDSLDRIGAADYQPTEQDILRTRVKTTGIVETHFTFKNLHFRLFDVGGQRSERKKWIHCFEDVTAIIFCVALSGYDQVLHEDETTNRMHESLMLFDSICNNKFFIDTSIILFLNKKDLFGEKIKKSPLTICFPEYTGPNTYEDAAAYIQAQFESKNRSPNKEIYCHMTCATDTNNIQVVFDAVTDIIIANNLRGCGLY

SMILES: CC(C)=CCC[C@]1(C)C=Cc2c(O)c3c(c(CC=C(C)C)c2O1)O[C@]12C(=C[C@@H]4C[C@H]1C(C)(C)O[C@@]2(C/C=C(/C)C(=O)O)C4=O)C3=O [UI-1907]
- effect on Gαo thermal stability (DSF): decrease the thermal stability of the Gαo subunit
